Assay results: PMC4126848 (Epilepsia, 2014)
Values joined by “and” are separate entries in the source; they are usually repeats but may differ in a detail not shown here. Identical values can stand only once. Like-named read-outs stand apart in the source and are kept apart here.

Legend:
[1] = tested on: hippocampal pyramidal neurons isolated from Scn2a^Q54 mice; type: cell-based, mouse; conditions: 1 µM; membrane potential clamped to −80 mV
[2] = Plasma and brain concentrations and pharmacokinetics in mice; conditions: for concentration at 30 min: male, Scn2a^Q54, mouse, intraperitoneal, 40 mg/kg
C57BL/6J male mice = experiment: Maximal electroshock-induced seizures; type: in vivo, mouse; conditions: oral gavage two hours prior to testing; probit analysis
Scn2a^Q54 mice [3] = experiment: Survival analysis of Scn2a^Q54 mice; type: in vivo, mouse; conditions: GS967 chow 1.5 mg/kg/d from postnatal day 21; control 20%
Scn2a^Q54 mice [4] = experiment: Tolerability observations in mice; type: in vivo, mouse; conditions: phenytoin 30 mg/kg i.p.; GS967 in chow
[5] = tested on: cardiac ion channels and several other molecular targets (more than 600 studied targets); conditions: 1 µM; cited from earlier work
[6] = tested on: hippocampal pyramidal neurons isolated from Scn2a^Q54 mice; type: cell-based, mouse; conditions: 1 µM
Scn2a^Q54 mice [7] = experiment: Anticonvulsant activity: behavioral seizure frequency in Scn2a^Q54 mice; type: in vivo, mouse; conditions: for reduction in seizure frequency: Scn2a^Q54 mice
Scn2a^Q54 mice [8] = experiment: Cresyl Violet staining for hilar neuron loss in the dentate gyrus; type: in vivo, mouse; conditions: GS967 1.5 mg/kg/d from P21-P60; female mice
[9] = mouse, in vivo

## FC(F)(F)Oc1ccc(-c2ccc3nnc(C(F)(F)F)n3c2)cc1 [GS967]
[1]
  reduction of spontaneous action potential firing frequency: 98.8 ± 0.1%
[2]; GS967 1.5 mg/kg/day orally in chow, immediately after post-treatment period
  [Plasma]: 0.6 ± 0.1 µM
[2]; mice
  brain penetration: effectively cross the blood-brain barrier
[2]; mouse, in vivo
  rate of elimination: slower rate of elimination than ranolazine
C57BL/6J male mice
  ED50 for protection against MES-induced tonic hindlimb extension: 0.1 mg/kg
Scn2a^Q54 mice [3]
  mice alive at 12 weeks: 90%
Scn2a^Q54 mice [4]
  sedation: no sedation was observed
[5]
  cross reactivity with cardiac ion channels and other molecular targets: no cross reactivity
[6]; control 1.2 ± 0.4%
  persistent current as % of peak current amplitude: 0.1 ± 0.1%
[6]; not significantly different from control
  peak current density: 172.3 ± 46.2 pA/pF
Scn2a^Q54 mice [7]; GS967 0.375 mg/kg/d orally in chow
  reduction in seizure frequency: 50%
Scn2a^Q54 mice [7]; GS967 1.5 mg/kg/d orally in chow, two days of treatment
  reduction in seizure frequency: greater than 90%
Scn2a^Q54 mice [7]; GS967 1.5 mg/kg/day orally in chow, male Scn2a^Q54 mice
  % Change in Seizure Frequency: −92 ± 4%
Scn2a^Q54 mice [8]
  hilar neuron loss (Cresyl Violet, qualitative): no overt hilar neuron loss

## O=C1NC(=O)C(c2ccccc2)(c2ccccc2)N1 [Phenytoin, reference compound]
[1]
  reduction of spontaneous action potential firing frequency: 36.7 ± 10.1%
Scn2a^Q54 mice [4]
  sedation: exhibited sedation characterized by lack of ambulation

## COc1ccccc1OCC(O)CN1CCN(CC(=O)Nc2c(C)cccc2C)CC1 (stereo not drawn) [Ranolazine, reference compound]
[2]; plasma
  concentration at 30 min: 19.3 ± 0.8 µM
[2]; whole brain
  concentration at 30 min: 4.9 ± 0.1 µM
[2]; mouse, plasma
  half-life: ~15 min
[9]
  brain penetration: low brain penetration
Scn2a^Q54 mice [7]; ranolazine 40 mg/kg i.p.
  reduction in seizure frequency: ~ 50% and 48%
